The record followed here is US12486246B2, “Replication protein A (RPA)-DNA interaction inhibitors” (THE TRUSTEES OF INDIANA UNIVERSITY, priority 2019, dated 2025).

Data set [1] has as its target T1, full length heterotrimeric human RPA (Homo sapiens, UniProt P27694).
T1 construct: Full length, heterotrimeric human RPA (fl-RPA) and DBD-A/B constructs were expressed and purified; made in house
Description: Electrophoretic mobility shift assay (EMSA), binding of full length human RPA to ssDNA. Conditions: for IC50: full length human RPA binding to DNA, mean ± SD of minimum triplicate experiments. The procedure:
Full length, heterotrimeric human RPA (fl-RPA) and DBD-A/B constructs were expressed and purified according to previously described protocol. The DBD-A/B construct was expressed as a His6-RPA181-422 fusion protein. E. coli BL21 (DE3) cells in log growth were induced for 3 h with 0.5 mM IPTG at 37° C. The cells were lysed via sonication in buffer containing 20 mM Tris pH 7.5, 500 mM NaCl, 10 mM b-mercaptoethanol, supplemented with 25 μg/mL lysozyme, 1 μg/mL leupeptin, 1 μg/mL pepstatin and 0.5 mM PMSF. The lysate was applied to a 20 mL phosphocellulose column equilibrated in the same buffer and the flow-through material collected, brought to 5 mM Imidazole and loaded onto a 2 ml Ni-NTA column. The column was washed and proteins eluted on with a gradient from 50 mM to 500 mM imidazole. Fractions were assessed by EMSA and SDS-PAGE and DBD-A/B containing fraction were pool, dialyzed against buffer containing 50 mM HEPES pH 7.0, 500 mM NaCl and 1 mM DTT and stored at −80° C.
EMSAs were carried out using previously described procedure with the following modification. EMSA reactions (20 μL) were performed with 50 nM fl-RPA and 2.5 nM 5′ [^32P]-labeled 34-base DNA in buffer containing 20 mM HEPES (pH 7.8), 1 mM DTT, 0.001% NP-40, 50 mM NaCl. Chemical compounds were suspended in DMSO and DMSO concentration in the reaction mixture was kept constant at 2% or below 5%. RPA was incubated with inhibitor or DMSO control in reaction buffer for 30 min before the addition of DNA. Reactions were incubated for 5 min at room temperature and products separated via 6% native polyacrylamide gel electrophoresis. The bound and unbound fractions were then quantified by phosphor-imager analysis using ImageQuant software (Molecular Dynamics, CA) and IC50 values calculated by non-linear regression using SigmPlot (Sysat). For EMSA reactions with RPA DBD-A/B, 150 nM DBD-A/B was used, and electrophoresis was performed at 4° C. All other conditions were identical to those described for the full-length RPA.
Purified full length heterotrimeric human RPA protein was used to screen a series of analogs in an electrophoretic mobility shift assay (EMSA) measuring direct binding to a ss-DNA substrate. Quantification of the EMSA data and additional concentration dependent analysis to measure IC50 values of newly synthesized analogs provided potential insight into the structure-activity relationships (Table 1 and 2). […] Fluorine and trifluoromethyl substituents were included in pyridinyl compounds 28-29.
For orientation: Mobility shift assays separate free from complexed probe on a gel.

For data set [2], the system named is sonicated salmon sperm DNA. Briefly: Fluorescent intercalator displacement (FID) assay, SYBR-Green. In kind it is binding. As to conditions: 25 mM MOPS pH 6.5. The procedure:
The analysis of compound interactions with DNA was determined by inhibition of SYBR-Green intercalation into DNA as we have previously described. Briefly, reactions were performed in 25 mM MOPS (pH 6.5) containing sonicated salmon sperm DNA (8.29 ng/μL), SYBR-Green, and the indicated concentrations of RPA inhibitors. Reactions were conducted in black 96-well plates. Doxorubicin, a known noncovalent DNA binding chemotherapeutic, was used as a positive control. Fluorescence was measured using a BioTek® Synergy™ H1 hybrid multi-mode microplate reader with an excitation wavelength of 485 nm, emission wavelength of 528 nm, and a read height of 7 mm. Data were collected using BioTek® Gen5™ reader software. Reactions were incubated a maximum of 5 min before measurements were collected.
In order to probe the potential role of DNA intercalation as a mechanism for RPA inhibition, compounds 19, 23, 26, 27, 43 and 45 were analyzed using FID assay along with doxorubicin (Dox) as a positive control. […] In addition, direct binding of 9 derivatives to the target protein was assessed using a differential scan fluorimetry (DSF) assay. This assay assesses the melting profile of a protein at increasing temperatures via fluorescent dye binding. The direct interaction of a small molecule to the target protein can either increase or decrease the melting temperature (Tm) of the target depending on the specific protein and their interactions. […] Heparin sulfate, a known RPA interacting molecule often used in the purification of the protein was used as a control. […] (data not shown). […] (FIG. 1B).

The nature of data set [3]: Aqueous solubility in unbuffered water. Type of data set: physicochemical. As to conditions: 43, 44, 45, 46, 47 vs 9, 16, 26, 28, 29 respectively. The procedure: Aqueous solubility was determined by suspending compound in un-buffered water with stirring. Insoluble material was removed by sedimentation or filtration and soluble compound quantified by absorbance spectroscopy and LC/MS. pH dependence was determined by suspending compound in 10 mM citrate buffer at pH 4.0 or 10 mM phosphate […] as described above in the description.
The morpholine ring is commonly introduced into solvent exposed regions as a privileged solubilizing group to improve solubility or pharmacokinetic properties including metabolic stability of a prospective drug scaffold which is exemplified by many FDA approved drugs. Modifications on Ring A had less of an effect than the morpholino modifications at the alkyl carboxylic acid side chain. To determine the effect of pH on solubility, we prepared solution at 1 mM in citrate buffer at pH 4, phosphate buffer at pH 7 and carbonate buffer at pH 9.5.

A word on the IC50: it is the concentration that gives 50% inhibition.

T1 sequence (P27694 whole entry): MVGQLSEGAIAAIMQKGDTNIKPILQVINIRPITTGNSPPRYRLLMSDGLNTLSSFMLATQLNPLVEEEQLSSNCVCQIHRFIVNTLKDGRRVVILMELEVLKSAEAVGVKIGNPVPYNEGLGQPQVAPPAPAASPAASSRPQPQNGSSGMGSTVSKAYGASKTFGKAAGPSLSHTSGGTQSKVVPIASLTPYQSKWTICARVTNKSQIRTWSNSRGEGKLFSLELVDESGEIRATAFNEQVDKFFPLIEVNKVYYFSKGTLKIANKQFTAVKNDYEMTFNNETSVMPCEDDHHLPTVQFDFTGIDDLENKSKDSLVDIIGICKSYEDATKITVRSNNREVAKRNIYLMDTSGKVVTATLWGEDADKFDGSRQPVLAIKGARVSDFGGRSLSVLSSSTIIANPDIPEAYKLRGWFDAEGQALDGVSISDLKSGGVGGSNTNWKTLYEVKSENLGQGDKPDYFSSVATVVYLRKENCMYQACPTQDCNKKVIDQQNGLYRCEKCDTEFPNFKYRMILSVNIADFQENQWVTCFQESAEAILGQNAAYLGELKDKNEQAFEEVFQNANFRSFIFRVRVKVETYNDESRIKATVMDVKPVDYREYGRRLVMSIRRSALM
T1 sequence (P15927 whole entry partner): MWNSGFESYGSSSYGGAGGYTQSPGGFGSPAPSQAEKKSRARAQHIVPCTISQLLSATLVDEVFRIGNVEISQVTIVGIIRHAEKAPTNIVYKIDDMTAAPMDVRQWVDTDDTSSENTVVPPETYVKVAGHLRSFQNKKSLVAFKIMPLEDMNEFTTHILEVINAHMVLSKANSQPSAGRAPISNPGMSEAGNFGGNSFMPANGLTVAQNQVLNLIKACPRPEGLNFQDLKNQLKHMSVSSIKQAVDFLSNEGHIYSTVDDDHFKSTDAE
T1 sequence (P35244 whole entry partner): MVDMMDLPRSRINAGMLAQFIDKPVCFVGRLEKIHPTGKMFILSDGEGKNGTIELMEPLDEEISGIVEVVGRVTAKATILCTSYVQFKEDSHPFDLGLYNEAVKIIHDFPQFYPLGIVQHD

As for `CCOc1ccc2cc(C3CC(c4ccc(Br)cc4)=NN3C(=O)CCCC(=O)O)c(Cl)nc2c1` (stereo not shown) [Compound 16, 5-(3-(4-Bromophenyl)-5-(2-chloro-7-ethoxyquinolin-3-yl)-4,5-dihydro-1H-pyrazol-1-yl)-5-oxopentanoic acid], in data set [1], the 50% inhibitory concentration (IC50) was found to be 19.2 ± 4.17 µM.

For `CCOc1ccc2cc(C3CC(c4ccc(O)cc4)=NN3C(=O)CCCC(=O)O)c(Cl)nc2c1` (stereo not shown) [Compound 17, 5-(5-(2-Chloro-7-ethoxyquinolin-3-yl)-3-(4-hydroxyphenyl)-4,5-dihydro-1H-pyrazol-1-yl)-5-oxopentanoic acid], the IC50 in data set [1] was above 25 µM.

Regarding `CCOc1ccc2cc(C3CC(c4ccc([N+](=O)[O-])cc4)=NN3C(=O)CCCC(=O)O)c(Cl)nc2c1` (stereo not shown) [Compound 18, 5-(5-(2-Chloro-7-ethoxyquinolin-3-yl)-3-(4-nitrophenyl)-4,5-dihydro-1H-pyrazol-1-yl)-5-oxopentanoic acid], the IC50 in data set [1] is above 25 µM.

For the compound `CCOc1ccc2cc(C3CC(c4ccc(N)cc4)=NN3C(=O)CCCC(=O)O)c(Cl)nc2c1` (stereo not shown) [Compound 19, 5-(3-(4-Aminophenyl)-5-(2-chloro-7-ethoxyquinolin-3-yl)-4,5-dihydro-1H-pyrazol-1-yl)-5-oxopentanoic acid], in data set [2], the “DNA binding activity (displacement of SYBR-Green intercalator)” value is on record as “No significant DNA binding activity”. Besides, in data set [1], the IC50 was found to be 2.34 ± 0.22 µM.

Regarding `C=CC(=O)Oc1ccc(C2=NN(C(=O)CCCC(=O)O)C(c3cc4ccc(OCC)cc4nc3Cl)C2)cc1` (stereo not shown) [Compound 20, 5-(3-(4-(Acryloyloxy)phenyl)-5-(2-chloro-7-ethoxyquinolin-3-yl)-4,5-dihydro-1H-pyrazol-1-yl)-5-oxopentanoic acid], in data set [1] (full length RPA), the “fold increase in potency/activity compared to compound 9” value was 2 fold. In data set [1], the half-maximal inhibitory concentration (IC50) was determined as 8.98 ± 0.98 µM.

On to `CCOc1ccc2cc(C3CC(c4ccc(OC(=O)N5CCOCC5)cc4)=NN3C(=O)CCCC(=O)O)c(Cl)nc2c1` (stereo not shown) [Compound 21, 5-(5-(2-Chloro-7-ethoxyquinolin-3-yl)-3-(4-((morpholine-4-carbonyl)oxy)phenyl)-4,5-dihydro-1H-pyrazol-1-yl)-5-oxopentanoic acid], for which the “RPA inhibitory activity compared to compound 9 (in words)” value in data set [1] (full length RPA) is given as “decreased RPA inhibition”. Besides, the 50% inhibitory concentration (IC50) in data set [1] was above 25 µM.

`CCOc1ccc2cc(C3CC(c4ccc(-c5ccoc5)cc4)=NN3C(=O)CCCC(=O)O)c(Cl)nc2c1` (stereo not shown) [Compound 22, 5-(5-(2-chloro-7-ethoxyquinolin-3-yl)-3-(4-(furan-3-yl)phenyl)-4,5-dihydro-1H-pyrazol-1-yl)-5-oxopentanoic acid]: the IC50 in data set [1] came to 6.77 ± 0.64 µM.

As to `CCOc1ccc2cc(C3CC(c4ccc(-c5ccc(F)nc5)cc4)=NN3C(=O)CCCC(=O)O)c(Cl)nc2c1` (stereo not shown) [Compound 28, 5-(5-(2-Chloro-7-ethoxyquinolin-3-yl)-3-(4-(6-fluoropyridin-3-yl)phenyl)-4,5-dihydro-1H-pyrazol-1-yl)-5-oxopentanoic acid], the IC50 in data set [1] came out at 2.66 ± 0.6 µM.

As for `CCOc1ccc2cc(C3CC(c4ccc(-c5ccc(C(F)(F)F)nc5)cc4)=NN3C(=O)CCCC(=O)O)c(Cl)nc2c1` (stereo not shown) [Compound 29, 5-(5-(2-Chloro-7-ethoxyquinolin-3-yl)-3-(4-(6-(trifluoromethyl)pyridin-3-yl)phenyl)-4,5-dihydro-1H-pyrazol-1-yl)-5-oxopentanoic acid], the IC50 in data set [1] amounted to 4.35 ± 0.42 µM.

Take `CCOC(=O)CCCC(=O)N1N=C(c2ccc(I)cc2)CC1c1cc2ccc(OCC)cc2nc1Cl` (stereo not shown) [Compound 30, ethyl 5-(5-(2-chloro-7-ethoxyquinolin-3-yl)-3-(4-iodophenyl)-4,5-dihydro-1H-pyrazol-1-yl)-5-oxopentanoate]: in data set [1] (full length RPA), the “RPA inhibitory activity compared to compound 9 (in words)” value is “decreased RPA inhibitory activity”. Moreover, in data set [1], the IC50 is above 25 µM.

Turning to `CCOc1ccc2cc(C3CC(c4ccc(I)cc4)=NN3C(=O)CCCCC(=O)O)c(Cl)nc2c1` (stereo not shown) [Compound 37, 6-(5-(2-Chloro-7-ethoxyquinolin-3-yl)-3-(4-iodophenyl)-4,5-dihydro-1H-pyrazol-1-yl)-6-oxohexanoic acid], the concentration for half-maximal inhibition (IC50) in data set [1] was found to be 6.86 ± 0.23 µM.

For `CCOc1ccc2cc(C3CC(c4ccc(I)cc4)=NN3C(=O)CCCCCC(=O)O)c(Cl)nc2c1` (stereo not shown) [Compound 38, 7-(5-(2-Chloro-7-ethoxyquinolin-3-yl)-3-(4-iodophenyl)-4,5-dihydro-1H-pyrazol-1-yl)-7-oxoheptanoic acid], in data set [1], the half-inhibitory concentration (IC50) was determined as 9.93 ± 1.23 µM.

`CCOc1ccc2cc(C3CC(c4ccc(I)cc4)=NN3c3cccc(C(=O)O)c3)c(Cl)nc2c1` (stereo not shown) [Compound 39, 3-(5-(2-Chloro-7-ethoxyquinolin-3-yl)-3-(4-iodophenyl)-4,5-dihydro-1H-pyrazol-1-yl)benzoic acid]: the IC50 in data set [1] is above 25 µM.

For the compound `CCOc1ccc2cc(C3CC(c4ccc(I)cc4)=NN3c3ccc(C(=O)O)cc3)c(Cl)nc2c1` (stereo not shown) [Compound 40, 4-(5-(2-Chloro-7-ethoxyquinolin-3-yl)-3-(4-iodophenyl)-4,5-dihydro-1H-pyrazol-1-yl)benzoic acid], in data set [1], the IC50 was above 25 µM.

On to `CCOc1ccc2cc(C3CC(c4ccc(I)cc4)=NN3C(=O)CCCC(=O)N3CCOCC3)c(Cl)nc2c1` (stereo not shown) [Compound 41, 1-(5-(2-Chloro-7-ethoxyquinolin-3-yl)-3-(4-iodophenyl)-4,5-dihydro-1H-pyrazol-1-yl)-5-morpholinopentane-1,5-dione], for which, in data set [1], the IC50 worked out at 6.63 ± 0.48 µM.

For `CCOc1ccc2cc(C3CC(c4ccc(I)cc4)=NN3C(=O)CCCC(=O)NCCN3CCOCC3)c(Cl)nc2c1` (stereo not shown) [Compound 42, 5-(5-(2-Chloro-7-ethoxyquinolin-3-yl)-3-(4-iodophenyl)-4,5-dihydro-1H-pyrazol-1-yl)-N-(2-morpholinoethyl)-5-oxopentanamide], in data set [1], the IC50 turned out to be 10.5 ± 0.68 µM.

`CCOc1ccc2cc(C3CC(c4ccc(Br)cc4)=NN3C(=O)CCCC(=O)NCCCN3CCOCC3)c(Cl)nc2c1` (stereo not shown) [Compound 44, 5-(3-(4-Bromophenyl)-5-(2-chloro-7-ethoxyquinolin-3-yl)-4,5-dihydro-1H-pyrazol-1-yl)-N-(3-morpholinopropyl)-5-oxopentanamide]: the “aqueous solubility compared to carboxylic acid counterpart (in words)” value in data set [3] is “increased solubility”. Also, in data set [1], the IC50 stood at 10 ± 1.46 µM.

On to `CCOc1ccc2cc(C3CC(c4ccc(-c5ccc(F)nc5)cc4)=NN3C(=O)CCCC(=O)NCCCN3CCOCC3)c(Cl)nc2c1` (stereo not shown) [Compound 46, 5-(5-(2-Chloro-7-ethoxyquinolin-3-yl)-3-(4-(6-fluoropyridin-3-yl)phenyl)-4,5-dihydro-1H-pyrazol-1-yl)-N-(3-morpholinopropyl)-5-oxopentanamide], for which, in data set [3], the “aqueous solubility compared to carboxylic acid counterpart (in words)” value is given as “increased solubility”. Also, in data set [1], the IC50 is 2.29 ± 0.31 µM.

Take `COc1cccc2c1C(=O)c1c(O)c3c(c(O)c1C2=O)C[C@@](O)(C(=O)CO)C[C@@H]3O[C@H]1C[C@H](N)[C@H](O)[C@H](C)O1` [doxorubicin, reference compound]: the “DNA binding activity (displacement of SYBR-Green intercalator)” value in data set [2] is recorded as “concentration dependent reduction in fluorescence”.
